Experimental findings from patent US11866515B2, “Hemiasterlin derivatives for conjugation and therapy” (priority 2015, dated 2024) are described below.

In one test the test system is Target Positive Cell. Kind of test: Tumor cell line assay Example 2b, target positive cells. The test is classed as cell-based. The note with it: hemiasterlin derivatives, 120 hrs. How it is done: (§1) Cytotoxicity effects of test compounds on target positive and target negative cells were measured with a cell proliferation assay. Tumor cell lines were obtained from American Type Culture Collection (ATCC) and maintained in Ham's F-12: high glucose DMEM (50:50) glucose medium supplemented with 10% heat-inactivated fetal bovine serum, 1% Penicillin/Streptomcin and 2 mmol/L L-glutamax. Target positive and negative cells (a total of 625 cells per well) were seeded in a volume of 25 μL in a 384-well flat bottom white polystyrene plate. The cells were allowed to adhere overnight at 37° C. in a CO2 incubator. ADC variants were formulated at 2× concentration in DMEM/F12 medium and filtered through MultiScreen HTS 96-Well Filter Plates. Filter sterilized ADCs were serial diluted (1:3) and 25 μL of diluted samples were added into each treatment wells. Plates were then cultured at 37° C. in a CO2 incubator for 120 hrs. For cell viability measurement, 30 μL of Cell Titer-Glo® reagent (Promega Corp) was added into each well, and plates processed as per product instructions. Relative luminescence was measured on an ENVISION® plate reader (Perkin-Elmer; Waltham, Mass.). Relative luminescence readings were converted to % viability using untreated cells as controls. Data was fitted with non-linear regression analysis, using log(inhibitor) vs. response, variable slope, 4 parameter fit equation using GraphPad Prism (GraphPad v 5.00, Software; San Diego, Calif.). Data was expressed as % relative cell viability vs. dose of ADC in nM.

In a further test the test system is Target Negative Cell. Kind of test: Tumor cell line assay Example 2b, target negative cells. The test is classed as cell-based. Particulars: hemiasterlin derivatives, 120 hrs. As for the experimental part: as §1
For the next test, the system named is RPMI-6666 (HL). Kind of test: Cell binding assay anti-CD74, RPMI-6666. Particulars: B-Lymphoma. How it is done: (§2) Cell lines were maintained in RPMI, high glucose (Cellgro-Mediatech; Manassas, Va.) supplemented with 20% heat-inactivated fetal bovine serum (Hyclone; Thermo Scientific; Waltham, Mass.), 2 mM glutamax (Invitrogen; Carlsbad, Calif.) and 1× Pencillin/streptomycin (Cellgro-Mediatech; Manassas, Va.). Cells were harvested and re-suspended in FACS buffer (DPBS buffer supplemented with 1% bovine serum albumin). A total of 200,000 cells per well were incubated on ice with serial dilutions of anti-CD74 lead SP7919 without conjugation for 60 minutes. Cells were washed twice with ice-cold FACS buffer and incubated with 5 ug/ml Alexa 647 labeled donkey anti-human IgG antibody (Jackson Immune-Research) on ice for another 60 mins. Unstained cells and cells stained with secondary antibody alone were used as controls. Samples were then washed twice using FACS buffer and analyzed using a BD FACS Canto system. Mean fluorescence intensities were fitted using non-linear regression analysis with one site specific binding equation on GraphPad Prism. Data was expressed as geometric mean fluorescent intensity vs. antibody concentration in nM.

For another test, the system named is SU-DHL-6 (NHL). As to the kind of experiment: Cell binding assay anti-CD74, SU-DHL-6. Particulars: B-Lymphoma. As for the experimental part:
as §2

The test system of a further test is ARD (MM). As to the kind of experiment: Cell binding assay anti-CD74, ARD. The note with it: Multiple Myeloma. As for the experimental part: as §2
The test system of another test is RPMI-8226 (MM). Kind of test: Cell binding assay anti-CD74, RPMI-8226. The note with it: Multiple Myeloma. How it is done: as §2
The test system of the next test is BDCM (AML). As to the kind of experiment: Cell binding assay anti-CD74, BDCM. The note with it: Leukemia. How it is done:
as §2

The subject of a further test is SUP-B15 (ALL). As to the kind of experiment: Cell binding assay anti-CD74, SUP-B15. Particulars: Leukemia. As for the experimental part: as §2
The test system of the next test is JVM-13 (CLL). As to the kind of experiment: Cell binding assay anti-CD74, JVM-13. Particulars: Leukemia. As for the experimental part:
as §2

As for `CN[C@H](C(=O)N[C@H](C(=O)N(C)[C@H](/C=C(\C)C(=O)O)C(C)C)C(C)(C)C)C(C)(C)c1cccc(NC(=O)OCc2ccc(NC(=O)[C@H](CCCNC(N)=O)NC(=O)[C@@H](NC(=O)CCC(=O)N3Cc4ccccc4C#Cc4ccccc43)C(C)C)cc2)c1` (single isomer, unassigned) [Compound 101a], in the test with Target Positive Cell, 222 nM corresponded to half-maximal inhibition (IC50) and the “Target Positive Cell Span (%)” value is listed as 93%. Further, in the test with Target Negative Cell, half-maximal inhibition (IC50) was put at 2010 nM and the “Target Negative Cell Span (%)” value was determined as 110%.

With `CN[C@H](C(=O)NC(C(=O)N(C)[C@H](/C=C(\C)C(=O)O)C(C)C)C(C)(C)C)C(C)(C)c1cccc(NC(=O)OCc2cc(C)c(OC3OC(C(=O)O)C(O)C(O)C3O)c(NC(=O)CCNC(=O)CCCCC(=O)N3Cc4ccccc4C#Cc4ccccc43)c2)c1` (stereo partly drawn) [Compound 109a], in the test with Target Positive Cell, it took 661 nM to reach half-maximal inhibition (IC50) and the “Target Positive Cell Span (%)” value was 92%. In the test on Target Negative Cell, the concentration for half-maximal inhibition (IC50) (usually the point on the concentration scale where inhibition reaches its midpoint) was 2440 nM and the “Target Negative Cell Span (%)” value is 95%.

As for `CN[C@H](C(=O)N[C@H](C(=O)N(C)[C@H](/C=C(\C)C(=O)O)C(C)C)C(C)(C)C)C(C)(C)c1cccc(NC(=O)OCc2ccc(NC(=O)[C@H](C)NC(=O)[C@@H](NC(=O)CCCCC(=O)N3Cc4ccccc4C#Cc4ccccc43)C(C)C)cc2)c1` [Compound 110a], in the test on Target Positive Cell, the half-maximal inhibitory concentration (IC50) was determined as 26 nM and the “Target Positive Cell Span (%)” value is reported as 93%. In the test on Target Negative Cell, the concentration for half-maximal inhibition (IC50) is 337 nM and the “Target Negative Cell Span (%)” value worked out at 90%.

Consider `CNC(C(=O)N[C@H](C(=O)N(C)[C@H](/C=C(\C)C(=O)O)C(C)C)C(C)(C)C)C(C)(C)c1cccc(NC(=O)[C@H](C)NC(=O)[C@@H](NC(=O)CCCCC(=O)N2Cc3ccccc3C#Cc3ccccc32)C(C)C)c1` (stereo partly drawn) [Compound 111a], for which, in the test on Target Positive Cell, the concentration for half-maximal inhibition (IC50) was 65 nM and the “Target Positive Cell Span (%)” value is given as 92%. In the test on Target Negative Cell, the concentration for half-maximal inhibition (IC50) was found to be 717 nM and the “Target Negative Cell Span (%)” value was found to be 91%.

B1: anti-CD74: anti-CD74 lead SP7919 without conjugation (antibody, V domains shown)
VH: QVQLVESGGGVVQPGRSLRLSCAASGFNFSDYGMHWVRQAPGKGLEWVAVIWYDGSISYYADSVKGRFTISRDNSKNTLYLQMNSLRAEDTAVYYCARGGTVEHGAVYGTDVWGQGTTVTVSS
VL: DIQMTQSPSSVSASVGDRVTITCRASQGIGSWLAWYQQKPGKAPKLLIYAADRLQSGVPSRFSGSGSGTDFTLTISSLQPEDFATYYCQQYHTYPLTFGGGTKVEIK
modifications: non-natural residues
In the case of B1, the “Cell Binding anti-CD74 Bmax” value in the test with RPMI-6666 (HL) is given as 3879; in the test with SU-DHL-6 (NHL) it was 1565; in the test on ARD (MM), 190; in the test with RPMI-8226 (MM), 119; with BDCM (AML), 3059; with SUP-B15 (ALL) it was 680. For the same molecule, the “Cell Binding anti-CD74 Bmax” value in the test on JVM-13 (CLL) was found to be 447. The dissociation constant (Kd) – broadly, the concentration at which binding is half-saturated – is 2.3 nM in the test on RPMI-6666 (HL); 2 nM in the test with SU-DHL-6 (NHL); 2.6 nM in the test with ARD (MM); 3.6 nM in the test with RPMI-8226 (MM); 4.5 nM with BDCM (AML); 3.5 nM with SUP-B15 (ALL). Further, the Kd with JVM-13 (CLL) is 2.5 nM.
